Tests used:
[1] = tested on: A498 cells; assay: MTT colorimetry, tumor cell growth/viability; type: cell-based, human; details: for IC50: A498, MTT, 72 h
Procedure: (§1) Logarithmic growth phase cells were seeded in 96-well culture plate in appropriate density (100 μl in each well). After overnight cultivation, different concentrations of drugs were added and treated for 72 h, while three wells were set for each concentration. After treatment was completed, 20 μl/well of MTT (5 mg/ml in PBS) was added to each well and affected for 3-5 hours, the medium was suctioned out completely and 100 ul/well of DMSO was added, oscillated on decolorization shaker in dark place for 10 minutes until the Blue purple crystals formazan (formazan) was completely dissolved, the OD (Optical Density) value was detected with a microplate reader (detection wavelength: […]; reference wavelength: 650 nM). In blank group, culture medium only added without cells, and in control group, DMSO in the same volume as that for drug was added. Cell viability was calculated=(OD value of experimental group−OD value of control group)/(OD value of control group−OD value of blank group). Tumor cells from different tissue source were selected, and the concentration of Anagrelide was 1 μM and 50 μM, OD value was MTT detected after administrated for 72 hours, and the cell viability was calculated using cell viability=(administered group OD-blank group OD)/(control group OD-blank group OD)*100%, and was mapped by using GraphPadPrism 4 software. IC50 values on this seven cell lines of Anagrelide were detect by MTT method, and all of them are less than 100 nM (Table 2).

[2] = tested on: Bel7404 cells; assay: MTT colorimetry, tumor cell growth/viability; type: cell-based, human; details: 1 μM, 72 hours
Procedure: as §1

[3] = tested on: HeLa cells; assay: MTT colorimetry, tumor cell growth/viability; type: cell-based, human; details: 1 μM, 72 hours
Procedure: as §1

[4] = tested on: DU145 cells; assay: MTT colorimetry, tumor cell growth/viability; type: cell-based, human; details: 50 μM, 72 hours
Procedure: as §1, with “software.” for “software. IC50 values on this seven cell lines of Anagrelide were detect by MTT method, and all of them are less than 100 nM (Table 2).”

[5] = tested on: H1299 cells; assay: MTT colorimetry, tumor cell growth/viability; type: cell-based, human; details: 50 μM, 72 hours
Procedure: as §1, with “software.” for “software. IC50 values on this seven cell lines of Anagrelide were detect by MTT method, and all of them are less than 100 nM (Table 2).”

[6] = tested on: MDA-MB-231 cells; assay: MTT colorimetry, tumor cell growth/viability; type: cell-based, human; details: 50 μM, 72 hours
Procedure: as §1, with “software.” for “software. IC50 values on this seven cell lines of Anagrelide were detect by MTT method, and all of them are less than 100 nM (Table 2).”

[7] = tested on: MDA-MB-468 cells; assay: MTT colorimetry, tumor cell growth/viability; type: cell-based, human; details: 50 μM, 72 hours
Procedure: as §1, with “software.” for “software. IC50 values on this seven cell lines of Anagrelide were detect by MTT method, and all of them are less than 100 nM (Table 2).”

[8] = tested on: U87-MG cells; assay: MTT colorimetry, tumor cell growth/viability; type: cell-based, human; details: 50 μM, 72 hours
Procedure: as §1, with “software.” for “software. IC50 values on this seven cell lines of Anagrelide were detect by MTT method, and all of them are less than 100 nM (Table 2).”

[9] = tested on: Wi38 cells; assay: MTT colorimetry, tumor cell growth/viability; type: cell-based, human; details: 50 μM, 72 hours
Procedure: as §1, with “software.” for “software. IC50 values on this seven cell lines of Anagrelide were detect by MTT method, and all of them are less than 100 nM (Table 2).”

[10] = tested on: PARP cleavage in FHCC 98 cells; assay: PARP cleavage by Western Blotting (apoptosis); type: cell-based, human; details: 100 nM, different time points
Source text: (§2) 1) Vertical electrophoretic separation of proteins: 8%-10% SDS-polyacrylamide (SDA-PAGE) gel electrophoresis separation, 5% stacking gel. The voltage for stacking gel was 80V, separation gel separation voltage for separating gel was 120V, and electrophoresis was stopped when bromophenol blue indicator ran to the bottom; 2) membrane transferring: semi-dry transferring: transmembrane voltage was 10-15V, and the time was adjusted according to the size of the protein; 3) pre-stained with Ponceau to observe transmembrane effect; 4) blocking: It was blocked with 5% skim milk in TBST and oscillated on Decolorization shaker at room temperature for 1 hour; 5) the binding with first antibody: The antibody was diluted at 1: 2000 to 1: 10000 in TBST containing 5% BSA, oscillated on decolorization shaker 1 hour under room temperature for binding, and placed at 4° C. overnight. TBST was used to wash for three times, and 10 minutes for each time. 6) the binding with secondary antibody: The antibody was diluted at 1:5000 to 1:10000 in TBST containing 5% BSA, and oscillated on decolorization shaker 1 hour for binding under room temperature. TBST was used to wash for three times, and 10 minutes for each time. ECL developing kit was used to treat substrate for 2-3 minutes, detected for chemiluminescence, and exposed on X-ray film. […] The PARP cleavage was detected by Western Blotting.

[11] = tested on: PARP cleavage in H4 cells; assay: PARP cleavage by Western Blotting (apoptosis); type: cell-based, human; details: 100 nM, different time points
Source text: as §2

[12] = Body weight of tumor-bearing nude mice; type: in vivo, BALB/c naked mouse; details: 21 days
Procedure: Under aseptic conditions, tumor cells in the proliferation stage were taken. The cell concentration was adjusted after digestion, seeded at right armpit of nude mice, and the inoculated volume was 0.1 mL. Tumor diameter was measured with vernier caliper, after the tumor was grown to 200-300 mm^3, the tumor-bearing mice were selected, and randomly divided into 3 groups (n=4) according to the size of the tumors: negative control group, Anagrelide I (10 mg/kg), Anagrelide II (30 mg/kg). Each group was intragastric administrated, the day of administration was recorded as d1, the negative control group was given same amount of vehicle, and then the long and short diameters of tumor were measured twice a week, while the body weights of mice were weighed. At the 21th day of the administration, the animals were sacrificed and the tumor was dissected and weighed. Before the animals were sacrificed, eyeball was taken for blood sample, the number of white blood cell (WBC), red blood cell (RBC), concentration of hemoglobin (Hb) and number of platelet (PLT) were measured.

[13] = tested on: tumor cells; assay: Growth inhibition of tumor cells (summary statement); type: cell-based; details: 10 nM/L
[14] = tested on: phosphodiesterase (PDE); details: subsequent studies; cited from earlier work

## O=C1CN2Cc3c(ccc(Cl)c3Cl)N=C2N1 [Anagrelide, 6,7-dichloro-1,5-dihydro-imidazo [2,1-b] quinazolin-2 (3H)-one]
[1]; 1 μM, 72 hours, MTT, A498
  inhibition of cell growth: significantly inhibited growth
[1]
  IC50: 53 nM
[1]; Homo sapiens, A498, 72 h
  IC50: < 100 nM
[2]
  inhibition of cell growth: significantly inhibited growth
[3]
  inhibition of cell growth: significantly inhibited growth
[4]
  inhibition of cell growth: inhibited their growth
[5]
  inhibition of cell growth: inhibited their growth
[6]
  inhibition of cell growth: inhibited their growth
[7]
  inhibition of cell growth: inhibited their growth
[8]
  inhibition of cell growth: inhibited their growth
[9]
  inhibition of cell growth: inhibited their growth
[10]
  PARP cleavage: PARP cleavage was gradually increased with time
[11]
  PARP cleavage: PARP cleavage was gradually increased with time
[12]; 10 mg/kg intragastric
  effect on animal body weight: no significant difference from the negative control group
[12]; 30 mg/kg intragastric
  effect on animal body weight: no significant difference from the negative control group
[13]
  growth inhibition of tumor cells: obviously inhibit the growth of tumor cells
[14]
  phosphodiesterase (PDE) activity: capable of inhibiting phosphodiesterase (PDE) activity

Source: patent publication US10105362B2, “Anti-tumor use of anagrelide and derivatives thereof” (SHANGHAI INSTITUTE OF MATERIA MEDICA, CHINESE ACADEMY OF …, priority 2013, dated 2018)
